Measurements reported in US12391737B2, “Soluble NPY2 receptor agonists” (Boehringer Ingelheim International GmbH, priority 2020, dated 2025).
*1 amine or outer side, *2 acyl side, *3 side chain or, on linkers, in order; H or OH if unused. Where a SMILES comes first, the peptide text is derived from it. Side-chain parts run from the residue outwards. The star is where a group is joined. C18 diacid = O=C(O)CCCCCCCCCCCCCCCCC(=O)*; γGlu = O=C(O)[C@H](CCC(=O)[*:2])N[*:1]; Isovaleryl = CC(C)CC(=O)*; Ahx = NCCCCCC(=O)O

How the values were obtained:
[1] = molecular target: T1, Human Neuropeptide Y2 Receptor (Homo sapiens, UniProt P49146); test: Radioligand binding competition assay (RLB); details: Table 3, 125I-PYY(1-36) competition; read-out: Ki
T1 construct: purchased CHEMICON HTS066M
T1 sequence (P49146 1-381): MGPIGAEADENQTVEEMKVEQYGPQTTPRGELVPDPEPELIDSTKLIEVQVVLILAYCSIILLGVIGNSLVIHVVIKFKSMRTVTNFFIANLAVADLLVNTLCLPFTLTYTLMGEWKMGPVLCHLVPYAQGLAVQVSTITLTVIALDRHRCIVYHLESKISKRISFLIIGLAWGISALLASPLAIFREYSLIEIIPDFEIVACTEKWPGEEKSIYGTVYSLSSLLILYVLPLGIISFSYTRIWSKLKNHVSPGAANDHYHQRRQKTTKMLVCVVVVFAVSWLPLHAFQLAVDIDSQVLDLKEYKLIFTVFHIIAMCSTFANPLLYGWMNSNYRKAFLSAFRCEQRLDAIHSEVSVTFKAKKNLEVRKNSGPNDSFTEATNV
Outline: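 Filtration competition binding on membranes from cells expressing the receptor, 0.5 μg protein/well, in 50 mM HEPES, 5 mM MgCl2, 1 mM CaCl2, pH 7.4, with 0.2% ovalbumin. Incubation ran 2 h at room temperature, followed by GF/C filtration and scintillation counting. IC50 came from nonlinear sigmoidal fits.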

[2] = Solubility determination; details: for Sol6: pH 6; for Sol7: pH 7
Outline: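 Sample: TFA-salt peptide at 10 mg/ml target in 0.1 M Na diphosphate, pH 6.4 or 7.0, shaken 2 h RT, filtered, diluted to 1 mg/ml.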

| Compound | Ki [1] | Sol6 [2] | Sol7 [2] |
| --- | --- | --- | --- |
| CC[C@H](C)[C@H](NC(=O)[C@H](Cc1ccc(O)cc1)NC(=O)[C@H](Cc1ccc(O)cc1)NC(=O)[C@H](CCCNC(=N)N)NC(=O)[C@H](CCC(N)=O)NC(=O)[C@H](CC(C)C)NC(=O)[C@H](CCC(=O)O)NC(=O)[C@H](CCC(=O)O)NC(=O)[C@@H]1CCCN1C(=O)[C@H](CCC(=O)O)NC(=O)[C@H](C)NC(=O)[C@H](CC(=O)O)NC(=O)[C@H](CCC(=O)O)NC(=O)[C@H](CCC(=O)O)NC(=O)[C@@H]1CCCN1C(=O)[C@H](CCCCNC(=O)CCCCCNC(=O)CC[C@H](NC(=O)CCCCCCCCCCCCCCCCC(=O)O)C(=O)O)NC(=O)[C@H](C)NC(=O)[C@@H]1CCCN1C(=O)[C@H](C)NC(=O)CC(C)C)C(=O)N[C@@H](CO)C(=O)N[C@@H](CC(C)C)C(=O)N[C@@H](CCCNC(=N)N)C(=O)N[C@@H](Cc1c[nH]cn1)C(=O)N[C@@H](Cc1ccc(O)cc1)C(=O)N[C@@H](Cc1ccc(O)cc1)C(=O)N[C@@H](CC(N)=O)C(=O)N[C@@H](Cc1c[nH]c2ccccc12)C(=O)N[C@@H](CC(C)C)C(=O)N[C@H](C(=O)N[C@@H](CCCNC(=N)N)C(=O)N[C@@H](CCC(N)=O)C(=O)N[C@@H](CCCNC(=N)N)C(=O)N[C@@H](Cc1ccc(O)cc1)C(N)=O)[C@@H](C)O [Compound 33, N{alpha-4}-(3-methylbutanoyl)-N{epsilon-7}-(6-[(4S)-4-carboxy-4-(17-carboxyheptadecanamido)butanamido]hexanoyl)[4A,6A,7K,9E,13E,18Q,22I,28Y,30W,31L]-hPYY(4-36)] | 2.53 nM | 7.2 mg/mL | 8.3 mg/mL |
| CC(C)CC(=O)N[C@@H](C)C(=O)N1CCC[C@H]1C(=O)N[C@@H](CCC(=O)O)C(=O)N[C@@H](CCCCNC(=O)CCCCCNC(=O)CC[C@H](NC(=O)CCCCCCCCCCCCCCCCC(=O)O)C(=O)O)C(=O)N1CCC[C@H]1C(=O)N[C@@H](CCC(=O)O)C(=O)N[C@@H](C)C(=O)N[C@@H](CC(=O)O)C(=O)N[C@@H](C)C(=O)N[C@@H](CO)C(=O)N1CCC[C@H]1C(=O)N[C@@H](CCC(=O)O)C(=O)N[C@@H](CCC(=O)O)C(=O)N[C@H](C(=O)N[C@@H](CCC(N)=O)C(=O)N[C@@H](CCCNC(=N)N)C(=O)N[C@@H](Cc1ccc(O)cc1)C(=O)N[C@@H](Cc1ccc(O)cc1)C(=O)N[C@H](C(=O)N[C@@H](CO)C(=O)N[C@@H](CC(C)C)C(=O)N[C@@H](CCCNC(=N)N)C(=O)N[C@@H](Cc1c[nH]cn1)C(=O)N[C@@H](Cc1ccc(O)cc1)C(=O)N[C@@H](Cc1ccc(O)cc1)C(=O)N[C@@H](CC(N)=O)C(=O)N[C@@H](Cc1c[nH]c2ccccc12)C(=O)N[C@@H](CC(C)C)C(=O)N[C@H](C(=O)N[C@@H](CCCNC(=N)N)C(=O)N[C@@H](CCC(N)=O)C(=O)N[C@@H](CCCNC(=N)N)C(=O)N[C@@H](Cc1ccc(O)cc1)C(N)=O)[C@@H](C)O)C(C)C)[C@@H](C)O [Compound 13, N{alpha-4}-(3-methylbutanoyl)-N{epsilon-7}-(6-[(4S)-4-carboxy-4-(17-carboxyheptadecanamido)butanamido]hexanoyl)[4A,7K,9E,10A,17T,18Q,22V,28Y,30W,31L]-hPYY(4-36)] | 1.53 nM | 10.0 mg/mL | 10.0 mg/mL |
| CC(C)CC(=O)N[C@@H](C)C(=O)N1CCC[C@H]1C(=O)N[C@@H](CCC(=O)O)C(=O)N[C@@H](CCCCNC(=O)CCCCCNC(=O)CC[C@H](NC(=O)CCCCCCCCCCCCCCCCC(=O)O)C(=O)O)C(=O)N1CCC[C@H]1C(=O)N[C@@H](CCC(=O)O)C(=O)N[C@@H](CCC(=O)O)C(=O)N[C@@H](CC(=O)O)C(=O)N[C@@H](C)C(=O)N[C@H](C(=O)N1CCC[C@H]1C(=O)N[C@@H](CCC(=O)O)C(=O)N[C@@H](CCC(=O)O)C(=O)N[C@H](C(=O)N[C@@H](CCC(N)=O)C(=O)N[C@@H](CCCNC(=N)N)C(=O)N[C@@H](Cc1ccc(O)cc1)C(=O)N[C@@H](Cc1ccc(O)cc1)C(=O)N[C@H](C(=O)N[C@@H](CO)C(=O)N[C@@H](CC(C)C)C(=O)N[C@@H](CCCNC(=N)N)C(=O)N[C@@H](Cc1c[nH]cn1)C(=O)N[C@@H](Cc1ccc(O)cc1)C(=O)N[C@@H](Cc1ccc(O)cc1)C(=O)N[C@@H](CC(N)=O)C(=O)N[C@@H](Cc1c[nH]c2ccccc12)C(=O)N[C@@H](CC(C)C)C(=O)N[C@H](C(=O)N[C@@H](CCCNC(=N)N)C(=O)N[C@@H](CCC(N)=O)C(=O)N[C@@H](CCCNC(=N)N)C(=O)N[C@@H](Cc1ccc(O)cc1)C(N)=O)[C@@H](C)O)C(C)C)[C@@H](C)O)[C@@H](C)O [Compound 152, N{alpha-4}-(3-methylbutanoyl)-N{epsilon-7}-(6-[(4S)-4-carboxy-4-(17-carboxyheptadecanamido)butanamido]hexanoyl)-[4A,7K,9E,13T,17T,18Q,22V,28Y,30W,31L]-hPYY(4-36)] | 1.32 nM | 8.8 mg/mL | 8.8 mg/mL |
| CC[C@H](C)[C@H](NC(=O)[C@H](CCC(=O)O)NC(=O)[C@H](CCC(=O)O)NC(=O)[C@@H]1CCCN1C(=O)[C@H](CCC(=O)O)NC(=O)[C@H](C)NC(=O)[C@H](C)NC(=O)[C@H](CCC(=O)O)NC(=O)[C@H](CCC(=O)O)NC(=O)[C@@H]1CCCN1C(=O)[C@H](CCCCNC(=O)CCCCCNC(=O)CC[C@H](NC(=O)CCCCCCCCCCCCCCCCC(=O)O)C(=O)O)NC(=O)[C@H](CCC(=O)O)NC(=O)[C@@H]1CCCN1C(=O)[C@H](C)NC(=O)CC(C)C)C(=O)N[C@@H](CCC(N)=O)C(=O)N[C@@H](CCCNC(=N)N)C(=O)N[C@@H](Cc1ccc(O)cc1)C(=O)N[C@@H](Cc1ccc(O)cc1)C(=O)N[C@H](C(=O)N[C@@H](C)C(=O)N[C@@H](CC(C)C)C(=O)N[C@@H](CCCNC(=N)N)C(=O)N[C@@H](Cc1c[nH]cn1)C(=O)N[C@@H](Cc1ccc(O)cc1)C(=O)N[C@@H](Cc1ccc(O)cc1)C(=O)N[C@@H](CC(N)=O)C(=O)N[C@@H](Cc1c[nH]c2ccccc12)C(=O)N[C@@H](CC(C)C)C(=O)N[C@H](C(=O)N[C@@H](CCCNC(=N)N)C(=O)N[C@@H](CCC(N)=O)C(=O)N[C@@H](CCCNC(=N)N)C(=O)N[C@@H](Cc1ccc(O)cc1)C(N)=O)[C@@H](C)O)C(C)C [Compound 156, N{alpha-4}-(3-methylbutanoyl)-N{epsilon-7}-(6-[(4S)-4-carboxy-4-(17-carboxyheptadecanamido)butanamido]hexanoyl)-[4A,7K,9E,11A,13E,17I,18Q,22V,23A,28Y,30W,31L]-hPYY(4-36)] | 4.2 nM | 9.8 mg/mL | 9.6 mg/mL |
| CC[C@H](C)[C@H](NC(=O)[C@H](Cc1ccc(O)cc1)NC(=O)[C@H](Cc1ccc(O)cc1)NC(=O)[C@H](CCCNC(=N)N)NC(=O)[C@H](CCC(N)=O)NC(=O)[C@H](CC(C)C)NC(=O)[C@H](CCC(=O)O)NC(=O)[C@H](CCC(=O)O)NC(=O)[C@@H]1CCCN1C(=O)[C@@H](NC(=O)[C@H](C)NC(=O)[C@H](CC(=O)O)NC(=O)[C@H](C)NC(=O)[C@H](CCC(=O)O)NC(=O)[C@@H]1CCCN1C(=O)[C@H](CCCCNC(=O)CCCCCNC(=O)CC[C@H](NC(=O)CCCCCCCCCCCCCCCCC(=O)O)C(=O)O)NC(=O)[C@H](CCC(=O)O)NC(=O)[C@@H]1CCCN1C(=O)[C@H](C)NC(=O)CC(C)C)[C@@H](C)O)C(=O)N[C@@H](CO)C(=O)N[C@@H](CC(C)C)C(=O)N[C@@H](CCCNC(=N)N)C(=O)N[C@@H](Cc1c[nH]cn1)C(=O)N[C@@H](Cc1ccc(O)cc1)C(=O)N[C@@H](Cc1ccc(O)cc1)C(=O)N[C@@H](CC(N)=O)C(=O)N[C@@H](Cc1c[nH]c2ccccc12)C(=O)N[C@@H](CC(C)C)C(=O)N[C@H](C(=O)N[C@@H](CCCNC(=N)N)C(=O)N[C@@H](CCC(N)=O)C(=O)N[C@@H](CCCNC(=N)N)C(=O)N[C@@H](Cc1ccc(O)cc1)C(N)=O)[C@@H](C)O [Compound 25, N{alpha-4}-(3-methylbutanoyl)-N{epsilon-7}-(6-[(4S)-4-carboxy-4-(17-carboxyheptadecanamido)butanamido]hexanoyl)[4A,7K,9E,10A,13T,18Q,22I,28Y,30W,31L]-hPYY(4-36)] (Isovaleryl-APEK([Ahx-γGlu-C18 diacid])PEADATPEELQRYYISLRHYYNWLTRQRY-NH2) | 1.55 nM | 9.3 mg/mL | 9.3 mg/mL |
